ChEMBL document CHEMBL4138149, “Discovery of 1-(3-aryl-4-chlorophenyl)-3-(p-aryl)urea derivatives against breast cancer by inhibiting PI3K/Akt/mTOR and Hedgehog signalings” (Eur J Med Chem, 2017)
The source made the active and inactive calls. The calls are words filed in the database; no cut-off is given here.

What was measured:
MCF7 = assay: Cytotoxicity against human MCF7 cells after 72 hrs by MTT assay; type: functional, cell-based; conditions: MCF7, 72 h
[1] = target: Phosphatidylinositol 4,5-bisphosphate 3-kinase catalytic subunit alpha isoform (Homo sapiens) (UniProt P42336); assay: Inhibition of PI3Kalpha (unknown origin) at 5 uM using PIP2 as substrate measured after 1 hr by Kinase-Glo luminescent assay relative to control
Sequence of Phosphatidylinositol 4,5-bisphosphate 3-kinase catalytic subunit alpha isoform (Homo sapiens) (P42336 whole entry, canonical isoform): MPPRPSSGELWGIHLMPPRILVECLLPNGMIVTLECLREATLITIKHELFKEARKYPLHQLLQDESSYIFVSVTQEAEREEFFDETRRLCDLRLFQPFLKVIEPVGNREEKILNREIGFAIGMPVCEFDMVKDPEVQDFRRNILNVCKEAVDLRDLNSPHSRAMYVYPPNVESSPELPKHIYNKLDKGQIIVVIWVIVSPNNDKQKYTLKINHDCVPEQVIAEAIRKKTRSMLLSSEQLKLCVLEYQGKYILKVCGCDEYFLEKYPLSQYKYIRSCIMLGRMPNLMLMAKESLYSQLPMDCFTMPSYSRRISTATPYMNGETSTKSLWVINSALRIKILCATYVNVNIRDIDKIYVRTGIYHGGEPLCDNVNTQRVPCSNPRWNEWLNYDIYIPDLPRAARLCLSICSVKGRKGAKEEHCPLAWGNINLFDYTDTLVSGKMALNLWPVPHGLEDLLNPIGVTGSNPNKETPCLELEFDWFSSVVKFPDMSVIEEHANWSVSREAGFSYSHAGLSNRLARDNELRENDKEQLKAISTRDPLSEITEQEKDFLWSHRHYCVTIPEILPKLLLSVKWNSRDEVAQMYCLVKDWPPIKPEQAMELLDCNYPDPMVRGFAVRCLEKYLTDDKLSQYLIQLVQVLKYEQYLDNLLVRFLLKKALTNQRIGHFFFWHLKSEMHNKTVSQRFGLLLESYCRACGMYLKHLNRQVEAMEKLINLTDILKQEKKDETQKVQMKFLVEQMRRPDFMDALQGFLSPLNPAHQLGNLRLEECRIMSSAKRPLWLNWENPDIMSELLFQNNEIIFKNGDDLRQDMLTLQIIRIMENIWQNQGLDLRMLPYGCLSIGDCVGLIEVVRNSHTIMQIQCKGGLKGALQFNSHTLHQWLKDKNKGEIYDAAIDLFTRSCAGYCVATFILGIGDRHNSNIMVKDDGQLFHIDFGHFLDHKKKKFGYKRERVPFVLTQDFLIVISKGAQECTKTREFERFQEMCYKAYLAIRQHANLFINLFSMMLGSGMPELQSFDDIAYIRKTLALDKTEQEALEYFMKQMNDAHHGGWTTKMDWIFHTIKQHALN

PC-3 = assay: Cytotoxicity against human PC3 cells after 72 hrs by MTT assay; type: functional, cell-based; conditions: PC-3, 72 h
T47D [2] = assay: Cytotoxicity against human T47D cells after 72 hrs by MTT assay; type: functional, cell-based
MDA-MB-231 [3] = assay: cells; conditions: Homo sapiens, MDA-MB-231, 72 h
Description: Cytotoxicity against human MDA-MB-231 cells after 72 hrs by MTT assay

[4] = target: Serine/threonine-protein kinase mTOR (Homo sapiens, UniProt P42345); assay: Inhibition of mTOR (unknown origin) using Ulight-4EBP1 peptide as substrate measured after 1 hr by Lance Ultra assay
[5] = target: Phosphatidylinositol 4,5-bisphosphate 3-kinase catalytic subunit alpha isoform (Homo sapiens) (UniProt P42336); assay: Inhibition of PI3Kalpha (unknown origin) at 50 uM using PIP2 as substrate measured after 1 hr by Kinase-Glo luminescent assay relative to control
T47D [6] = assay: Induction of apoptosis in human T47D cells assessed as early apoptotic cells at 5 uM after 48 hrs by Annexin-V-FITC/propidium iodide staining based flow cytometric method (reference value: 4.49%); type: functional
T47D [7] = assay: Induction of apoptosis in human T47D cells assessed as live cells at 10 uM after 48 hrs by Annexin-V-FITC/propidium iodide staining based flow cytometric method (reference value: 86.2%); type: functional
T47D [8] = assay: Induction of apoptosis in human T47D cells assessed as live cells at 5 uM after 48 hrs by Annexin-V-FITC/propidium iodide staining based flow cytometric method (reference value: 86.2%); type: functional
MDA-MB-231 [9] = assay: Inhibition of PI3K/Akt/mTOR signaling in human MDA-MB-231 cells assessed as reduction in phosphorylation of S6K at Thr389 residue at 5 uM measured within 4 hrs by Western blot analysis; type: cell-based
MDA-MB-231 [10] = assay: Induction of apoptosis in human MDA-MB-231 cells assessed as early apoptotic cells at 10 uM after 48 hrs by Annexin-V-FITC/propidium iodide staining based flow cytometric method (reference value: 0.634%); type: functional
T47D [11] = assay: Induction of apoptosis in human T47D cells assessed as late apoptotic cells at 5 uM after 48 hrs by Annexin-V-FITC/propidium iodide staining based flow cytometric method (reference value: 9.18%); type: functional
MDA-MB-231 [12] = assay: Antimigratory activity against human MDA-MB-231 cells at 5 to 10 uM after 24 hrs by tryphan blue staining based transwell assay; type: functional, cell-based
T47D [13] = assay: Induction of apoptosis in human T47D cells assessed as early apoptotic cells at 10 uM after 48 hrs by Annexin-V-FITC/propidium iodide staining based flow cytometric method (reference value: 4.49%); type: functional
T47D [14] = assay: Induction of apoptosis in human T47D cells assessed as necrotic cells at 5 uM after 48 hrs by Annexin-V-FITC/propidium iodide staining based flow cytometric method (reference value: 0.135%); type: functional
MDA-MB-231 [15] = assay: Induction of apoptosis in human MDA-MB-231 cells assessed as late apoptotic cells at 5 uM after 48 hrs by Annexin-V-FITC/propidium iodide staining based flow cytometric method (reference value: 5%); type: functional
T47D [16] = assay: Induction of apoptosis in human T47D cells assessed as necrotic cells at 10 uM after 48 hrs by Annexin-V-FITC/propidium iodide staining based flow cytometric method (reference value: 0.135%); type: functional
T47D [17] = assay: Induction of apoptosis in human T47D cells assessed as late apoptotic cells at 10 uM after 48 hrs by Annexin-V-FITC/propidium iodide staining based flow cytometric method (reference value: 9.18%); type: functional
MDA-MB-231 [18] = assay: Induction of apoptosis in human MDA-MB-231 cells assessed as live cells at 5 uM after 48 hrs by Annexin-V-FITC/propidium iodide staining based flow cytometric method (reference value: 94.3%); type: functional
MDA-MB-231 [19] = assay: Inhibition of Hedgehog signaling in human MDA-MB-231 cells assessed as reduction in SAG-induced elevation of Gli1 expression at 5 to 10 uM after 48 hrs by Western blot analysis; type: cell-based
MDA-MB-231 [20] = assay: Inhibition of PI3K/Akt/mTOR signaling in human MDA-MB-231 cells assessed as reduction in AKT phosphorylation at Ser473 residue at 5 uM by Western blot analysis; type: cell-based; conditions: TDE = time-dependent effect
MDA-MB-231 [21] = assay: Inhibition of PI3K/Akt/mTOR signaling in human MDA-MB-231 cells assessed as reduction in phosphorylation of S6K at Thr412 residue at 5 uM measured within 4 hrs by Western blot analysis; type: cell-based
MDA-MB-231 [22] = assay: Induction of apoptosis in human MDA-MB-231 cells assessed as late apoptotic cells at 10 uM after 48 hrs by Annexin-V-FITC/propidium iodide staining based flow cytometric method (reference value: 5%); type: functional
MDA-MB-231 [23] = assay: Induction of apoptosis in human MDA-MB-231 cells assessed as live cells at 10 uM after 48 hrs by Annexin-V-FITC/propidium iodide staining based flow cytometric method (reference value: 94.3%); type: functional
MDA-MB-231 [24] = assay: Induction of apoptosis in human MDA-MB-231 cells assessed as necrotic cells at 10 uM after 48 hrs by Annexin-V-FITC/propidium iodide staining based flow cytometric method (reference value: 0.086%); type: functional
MDA-MB-231 [25] = assay: Induction of apoptosis in human MDA-MB-231 cells assessed as early apoptotic cells at 5 uM after 48 hrs by Annexin-V-FITC/propidium iodide staining based flow cytometric method (reference value: 0.634%); type: functional
MDA-MB-231 [26] = assay: Induction of apoptosis in human MDA-MB-231 cells assessed as necrotic cells at 5 uM after 48 hrs by Annexin-V-FITC/propidium iodide staining based flow cytometric method (reference value: 0.086%); type: functional

O=C(Nc1ccc(-c2cc(N3CCOCC3)nc(N3CCOCC3)n2)cc1)Nc1ccc(Cl)c(-c2ccncc2)c1 gave an IC50 (MCF7) of 8.2 µM, an inhibition [1] of 9.37% and an IC50 (PC-3) of 9.28 µM. The IC50 (T47D [2]) was 7.41 µM, the IC50 (MDA-MB-231 [3]) was 7.32 µM and the IC50 [4] was 0.26 µM.

Work on O=C(Nc1ccc(-c2ccnc(N3CCOCC3)n2)cc1)Nc1ccc(Cl)c(-c2ccncc2)c1 yielded an IC50 (MCF7) of 19.2 µM, an IC50 (PC-3) of 17.7 µM and an IC50 (T47D [2]) of 16 µM. The IC50 (MDA-MB-231 [3]) was 18.9 µM.

Compound O=C(Nc1ccc(-c2cc(N3CCOCC3)nc(N3CCOCC3)n2)cc1)Nc1ccc(Cl)c(-c2ccccn2)c1 has an IC50 (T47D [2]) of 35.1 µM.

In the case of CS(=O)(=O)c1ccc(C(=O)Nc2ccc(Cl)c(-c3ccccn3)c2)c(Cl)c1 [VISMODEGIB], the IC50 (MCF7) is reported as > 50 µM, the IC50 (PC-3) is reported as > 50 µM and the IC50 (T47D [2]) is reported as 41.3 µM. The IC50 (MDA-MB-231 [3]) was > 50 µM.

Compound O=C(Nc1ccc(-c2nc(N3CCOCC3)nc(N3CCOCC3)n2)cc1)Nc1ccc(Cl)c(-c2cccs2)c1 has an IC50 (T47D [2]) of 44.1 µM.

Compound O=C(Nc1ccc(-c2nc(N3CCOCC3)nc(N3CCOCC3)n2)cc1)Nc1ccc(Cl)c(-c2ccccn2)c1 has an inhibition [1] of 6.8%, an IC50 (T47D [2]) of 14.2 µM and an IC50 [4] of 0.09 µM.

For CS(=O)(=O)c1ccc(C(=O)Nc2ccc(-c3ccnc(N4CCOCC4)n3)cc2)c(Cl)c1, the IC50 (T47D [2]) was 25 µM.

With O=C(Nc1ccc(-c2cc(N3CCOCC3)nc(N3CCOCC3)n2)cc1)Nc1ccc(Cl)c(-c2ccccc2)c1 the IC50 (T47D [2]) was 15.6 µM.

For Nc1cc(C(F)(F)F)c(-c2cc(N3CCOCC3)nc(N3CCOCC3)n2)cn1 [BUPARLISIB], the IC50 (MCF7) was 11.1 µM, the IC50 (PC-3) was 5.34 µM and the IC50 (T47D [2]) was 6.92 µM. For the same compound, the IC50 (MDA-MB-231 [3]) was 1.88 µM.

In the case of CS(=O)(=O)c1ccc(C(=O)Nc2ccc(-c3nc(N4CCOCC4)nc(N4CCOCC4)n3)cc2)c(Cl)c1, the IC50 (T47D [2]) is reported as 17.5 µM.

In the case of CS(=O)(=O)c1ccc(C(=O)Nc2ccc(-c3cc(N4CCOCC4)nc(N4CCOCC4)n3)cc2)c(Cl)c1, the IC50 (T47D [2]) is reported as 22.3 µM.

O=C(Nc1ccc(-c2ccnc(N3CCOCC3)n2)cc1)Nc1ccc(Cl)c(-c2cccnc2)c1 showed an IC50 (MCF7) of 16.8 µM, an inhibition [5] of 30% and an IC50 (PC-3) of 11.8 µM. The IC50 (T47D [2]) was 4.11 µM, the IC50 (MDA-MB-231 [3]) was 14.5 µM and the IC50 [4] was > 10 µM.

For O=C(Nc1ccc(-c2ccnc(N3CCOCC3)n2)cc1)Nc1ccc(Cl)c(-c2ccccc2)c1, the IC50 (T47D [2]) was 44.6 µM.

Compound O=C(Nc1ccc(-c2ccnc(N3CCOCC3)n2)cc1)Nc1ccc(Cl)c(-c2cccs2)c1 has an IC50 (T47D [2]) of 24.3 µM.

O=C(Nc1ccc(-c2nc(N3CCOCC3)nc(N3CCOCC3)n2)cc1)Nc1ccc(Cl)c(-c2ccccc2)c1 gave an inhibition [1] of 57.1%, an IC50 (T47D [2]) of 15.4 µM and an IC50 [4] of 3.45 µM.

Work on O=C(Nc1ccc(-c2nc(N3CCOCC3)nc(N3CCOCC3)n2)cc1)Nc1ccc(Cl)c(-c2ccsc2)c1 yielded an IC50 (T47D [2]) of 23.2 µM.

In the case of O=C(Nc1ccc(-c2cc(N3CCOCC3)nc(N3CCOCC3)n2)cc1)Nc1ccc(Cl)c(-c2cccnc2)c1, the IC50 (MCF7) is reported as 9.15 µM, the inhibition [1] is reported as 35.1% and the IC50 (PC-3) is reported as 15.5 µM. It also gave an IC50 (T47D [2]) of 3.96 µM, an IC50 (MDA-MB-231 [3]) of 8.49 µM and an IC50 [4] of 0.33 µM.

O=C(Nc1ccc(-c2nc(N3CCOCC3)nc(N3CCOCC3)n2)cc1)Nc1ccc(Cl)c(-c2ccncc2)c1 showed an IC50 (MCF7) of 7.61 µM, an Activity (T47D [6]) of 8.49% and an Activity (T47D [7]) of 13.9%. For the same compound, the Activity (T47D [8]) was 80.8%, the inhibition (MDA-MB-231 [9]) was “Active” and the Activity (MDA-MB-231 [10]) was 42.5%. The Activity (T47D [11]) was 10.5%, the inhibition [1] was 16.3% and the Activity (MDA-MB-231 [12]) was “Active”. The Activity (T47D [13]) was 75.1%, the Activity (T47D [14]) was 0.132% and the Activity (MDA-MB-231 [15]) was 28.6%. It also gave an IC50 (PC-3) of 11 µM, an Activity (T47D [16]) of 0.347% and an IC50 (T47D [2]) of 7.94 µM. The Activity (T47D [17]) was 10.6%, the Activity (MDA-MB-231 [18]) was 51.6% and the inhibition (MDA-MB-231 [19]) was “Active”. The inhibition (MDA-MB-231 [20]) was “Tde”, the IC50 (MDA-MB-231 [3]) was 3.61 µM and the inhibition (MDA-MB-231 [21]) was “Active”. For the same compound, the Activity (MDA-MB-231 [22]) was 49.9%, the IC50 [4] was 0.18 µM and the Activity (MDA-MB-231 [23]) was 7.01%. The Activity (MDA-MB-231 [24]) was 0.595%, the Activity (MDA-MB-231 [25]) was 18.7% and the Activity (MDA-MB-231 [26]) was 1.17%.

With O=C(Nc1ccc(-c2cc(N3CCOCC3)nc(N3CCOCC3)n2)cc1)Nc1ccc(Cl)c(-c2ccsc2)c1 the IC50 (T47D [2]) was 18.7 µM.

O=C(Nc1ccc(-c2cc(N3CCOCC3)nc(N3CCOCC3)n2)cc1)Nc1ccc(Cl)c(-c2cccs2)c1 was tested, and the IC50 (T47D [2]) was 25.4 µM.

Compound O=C(Nc1ccc(-c2nc(N3CCOCC3)nc(N3CCOCC3)n2)cc1)Nc1ccc(Cl)c(-c2cccnc2)c1 has an IC50 (MCF7) of 5.75 µM, an inhibition [1] of 26.6% and an IC50 (PC-3) of 5.37 µM. It also gave an IC50 (T47D [2]) of 9.38 µM, an IC50 (MDA-MB-231 [3]) of 7.82 µM and an IC50 [4] of 0.2 µM.

O=C(Nc1ccc(-c2ccnc(N3CCOCC3)n2)cc1)Nc1ccc(Cl)c(-c2ccsc2)c1 was tested, and the IC50 (T47D [2]) was 22.6 µM.

O=C(Nc1ccc(-c2ccnc(N3CCOCC3)n2)cc1)Nc1ccc(Cl)c(-c2ccccn2)c1 gave an IC50 (T47D [2]) of 23.1 µM.
